Entries after “also recorded” stand apart in the source; their conditions may differ.
How the values were obtained:
[1] = test system: recombinant mushroom tyrosinase; assay: Tyrosinase activity, L-DOPA/dopachrome absorbance (Example 11); type: biochemical; settings: 0.05-2.5 mg/mL (Ac-SEQ ID NO: 4-NH2: 0.005-2.5 mg/mL); 30 minutes preincubation, L-DOPA, 2 hours, absorbance 450 nm; vs non-treated control (100%)
Description: Briefly, different concentrations of Ac-SEQ ID NO: 1-NH2 (0.05, 0.25, 0.5 and 2.5 mg/mL), Ac-SEQ ID NO: 2-NH2 (0.05, 0.25, 0.5 and 2.5 mg/mL), Ac-SEQ ID NO: 3-NH2 (0.05, 0.25, 0.5 and 2.5 mg/mL) and Ac-SEQ ID NO: 4-NH2 (0.005, 0.025, 0.05, 0.25, 0.5 and 2.5 mg/mL) and the positive control kojic acid (400 and 800 μM) were incubated with recombinant mushroom tyrosinase for 30 minutes before the addition of L-DOPA (L-3,4 dihidroxiphenilalanine, 2.5 mg/mL in PBS). After 2 hours' reaction at room temperature, the absorbance at 450 nm of each well was determined using the microplate reader Multiskan FC (Thermo Fisher Scientific, Mass., USA), which is directly proportional to the amount of dopachrome in the reaction mixture.

HDFa cells [2] = assay: Gene expression with Ac-SEQ ID NO: 4-NH2, RT-qPCR in HDFa (Example 17); type: cell-based, Human; settings: 0.01 mg/mL, 24 hours
Description: (§1) A stock solution of the peptide was prepared in water at 1 mg/mL. Working solution was freshly prepared at the specified concentration from stock solution in the corresponding supplemented medium.
(§2) RNA (ribonucleic acid) extraction and RT-qPCR (reverse transcription quantitative polymerase chain reaction) were performed. Briefly, HEKa or HDFa cells were seeded in duplicate (n=2) in 6-well plates at a density of 4×10^5 cells/well and maintained at standard culture conditions (106 Medium supplemented with 1% (v/v) LSGS for HDFa cells; Medium Epilife supplemented with 1% (v/v) EDGS and 1% (v/v) penicillin/streptomycin for HEKa cells; 37° C., 95% room humidity, 5% CO2) for 24 hours.
(§3) Then, cells were treated with peptide Ac-SEQ ID NO: 4-NH2 at the concentration of 0.01 mg/mL for 24 hours. Untreated cells were used as basal or negative control.
(§4) Cells were finally lysed, and replicates were pooled together for RNA extraction using Qiagen RNeasy Mini kit following manufacturer's instructions. Purified RNAs were used to generate the corresponding cDNAs (complementary deoxyribonucleic acids) by reverse transcription using a commercial kit High capacity cDNA reverse transcription kit (Applied Biosystems) which served as templates for amplification. RT-qPCR was performed with the panel of appropriate TaqMan assay probes for genes shown in table 10 (plus GAPDH—Glyceraldehyde 3-phosphate dehydrogenase—that was used as housekeeping gene) and 2×gene expression Master Mix using StepOne plus Real-Time PCR instrument. Amplification included 40 cycles of: 15 seconds at 95° C. […] (Annealing and extension) (Arya, M., Shergill, I. S., Williamson, M., Gommersall, L., Arya, N., Patel, H. R. (2005) Basic principles of real-time quantitative PCR. Expert Rev. Mol. Diagn.; 5(2):209-19; and Jozefczuk, J. and Adjaye, J. (2011) Quantitative real-time PCR-based analysis of gene expression. Methods Enzymol. 500; 99-109).
(§5) The obtained data was analysed using the ΔΔCt method, which provides the target gene expression values as fold changes in the treated sample compared with an untreated basal sample. […]

HEKa cells [3] = assay: Gene expression with Ac-SEQ ID NO: 4-NH2, RT-qPCR in HEKa (Example 17); type: cell-based, Human; settings: 0.01 mg/mL, 24 hours
Description: as §1, §2, §3
(§6) Cells were finally lysed, and replicates were pooled together for RNA extraction using Qiagen RNeasy Mini kit following manufacturer's instructions. Purified RNAs were used to generate the corresponding cDNAs (complementary deoxyribonucleic acids) by reverse transcription using a commercial kit High capacity cDNA reverse transcription kit (Applied Biosystems) which served as templates for amplification. RT-qPCR was performed with the panel of appropriate TaqMan assay probes for genes shown in table 10 (plus GAPDH—Glyceraldehyde 3-phosphate dehydrogenase—that was used as housekeeping gene) and 2×gene expression Master Mix using StepOne plus Real-Time PCR instrument. Amplification included 40 cycles of: 15 seconds at 95° C. (denaturation) and 1 minute at 60° C. (Annealing and extension) (Arya, M., Shergill, I. S., Williamson, M., Gommersall, L., Arya, N., Patel, H. R. (2005) Basic principles of real-time quantitative PCR. Expert Rev. Mol. Diagn.; 5(2):209-19; and Jozefczuk, J. and Adjaye, J. (2011) Quantitative real-time PCR-based analysis of gene expression. Methods Enzymol. 500; 99-109).
(§7) The obtained data was analysed using the ΔΔCt method, which provides the target gene expression values as fold changes in the treated sample compared with an untreated basal sample. Both samples were normalized with the relative expression of a housekeeping gene GAPDH (Glyceraldehyde 3-phosphate dehydrogenase).

HEKa cells [4] = assay: Expression of genes related to epidermal cell cohesion, RT-qPCR in HEKa (Example 9); type: cell-based, Human; settings: 0.01 mg/mL, 24 hours
Description: as §1
as §2, with “HEKa” for “HEKa or HDFa”, “(Medium” for “(106 Medium supplemented with 1% (v/v) LSGS for HDFa cells; Medium”, “penicillin/streptomycin;” for “penicillin/streptomycin for HEKa cells;”
Then, cells were treated with peptide Ac-SEQ ID NO: 1-NH2, Ac-SEQ ID NO: 2-NH2 or Ac-SEQ ID NO: 3-NH2 at the concentration of 0.01 mg/mL for 24 hours. Untreated cells were used as basal or negative control.
as §6, with “table 1” for “table 10”
as §7

HDFa cells [5] = assay: Expression of genes related with collagen production and extracellular matrix, RT-qPCR in HDFa (Example 10); type: cell-based, Human; settings: 0.01 mg/mL, 24 hours
Description: as §1
(§8) RNA (ribonucleic acid) extraction and RT-qPCR (reverse transcription quantitative polymerase chain reaction) were performed. Briefly, HDFa cells were seeded in duplicate (n=2) in 6-well plates at a density of 4×10^5 cells/well and maintained at standard culture conditions (106 Medium supplemented with 1% (v/v) LSGS; 37° C., 95% room humidity, 5% CO2) for 24 hours. Then, cells were treated with peptide Ac-SEQ ID NO: 1-NH2 at the concentration of 0.01 mg/mL for 24 and 48 hours. Untreated cells were used as basal or negative control.
as §6, with “table 5” for “table 10”
as §7

IL33 = IL33 expression modulation by RT-qPCR in HEKa cells (Example 7); type: cell-based, Human; settings: 0.01 mg/mL, 24 hours
Description: as §1
as §8, with “HDFa and HEKa” for “HDFa”, “LSGS for HDFa cells; Medium Epilife supplemented with 1% (v/v) EDGS and 1% (v/v) penicillin/streptomycin for HEKa cells;” for “LSGS;”, “1-NH2, Ac-SEQ ID NO: 2-NH2 or Ac-SEQ ID NO: 3-NH2” for “1-NH2”, “24” for “24 and 48”
as §4, with “the” for “the panel of”, “IL33” for “genes shown in table 10”, “instrument.” for “instrument. Amplification included 40 cycles of: 15 seconds at 95° C.”
as §5

Row | Substance | tyrosinase activity [1] | CLDN4 Fold change between treated cells and basal control (HEKa cells [4]) [Fold change] | OCLN Fold change between treated cells and basal control (HEKa cells [4]) [Fold change] | PCDH1 Fold change between treated cells and basal control (HEKa cells [4]) [Fold change] | PKP2 Fold change between treated cells and basal control (HEKa cells [4]) [Fold change] | TJP1 Fold change between treated cells and basal control (HEKa cells [4]) [Fold change] | FBN1 Fold change between treated cells and basal control (HDFa cells [5]) [Fold change] | MMP1 Fold change between treated cells and basal control (HDFa cells [5]) [Fold change] | IL33 gene expression, fold change in treated cells with regard to basal control (IL33) [fold change] | further results
1 | Ac-Arg-Arg-Gln-Met-Glu-Glu-NH2 (Ac-RRQMEE-NH2) [Ac-SEQ ID NO: 4-NH2, a peptide not of the present invention, very similar comparison peptide] | did not inhibit tyrosinase activity in any of the concentrations tested; also recorded: from concentration 0.05 mg/mL and onwards it increased tyrosinase activity in a dose-dependent manner | – | – | – | – | – | – | – | – | COL3A1 Fold change between treated cells and basal control (HDFa cells [2]): −1.28 Fold change; IL1RL1 Fold change between treated cells and basal control (HDFa cells [2]): −1.12 Fold change; TIMP2 Fold change between treated cells and basal control (HDFa cells [2]): −1.26 Fold change; CDSN Fold change between treated cells and basal control (HEKa cells [3]): −1.04 Fold change; IL33 Fold change between treated cells and basal control (HEKa cells [3]): −1.01 Fold change; OCLN Fold change between treated cells and basal control (HEKa cells [3]): −1.08 Fold change; SIGIRR Fold change between treated cells and basal control (HEKa cells [3]): −1.49 Fold change; SLC2A1 Fold change between treated cells and basal control (HEKa cells [3]): −1.07 Fold change; TJP1 Fold change between treated cells and basal control (HEKa cells [3]): −1.04 Fold change
2 | Ac-Arg-Glu-Gln-Met-Arg-Arg-NH2 (Ac-REQMRR-NH2) [Ac-SEQ ID NO: 3-NH2] | showed a dose-dependent inhibition of tyrosinase activity at concentrations of 0.25 mg/mL and higher | 1.90 | 1.99 | 2.48 | 1.86 | 1.43 | 1.29 | −1.46 | −3.93 | CLDN1 Fold change between treated cells and basal control (HEKa cells [4]): 1.5 Fold change; DSC1 Fold change between treated cells and basal control (HEKa cells [4]): 1.41 Fold change; DSC2 Fold change between treated cells and basal control (HEKa cells [4]): 1.43 Fold change; DSP Fold change between treated cells and basal control (HEKa cells [4]): 1.28 Fold change; JUP Fold change between treated cells and basal control (HEKa cells [4]): 1.23 Fold change; PPL Fold change between treated cells and basal control (HEKa cells [4]): 1.52 Fold change; MMP3 Fold change between treated cells and basal control (HDFa cells [5]): −1.30 Fold change
3 | Ac-Met-Arg-Arg-Glu-Gln-Arg-NH2 (Ac-MRREQR-NH2) [Ac-SEQ ID NO: 2-NH2] | showed inhibition of tyrosinase activity in a dose-dependent manner from 0.05 mg/mL and onwards | 1.51 | 1.58 | 2.14 | 1.42 | 1.34 | 1.20 | −1.21 | −3.77 | –

Reference: patent publication US20220389058A1, “PEPTIDES AND COMPOSITIONS FOR USE IN COSMETICS AND MEDICINE” (LIPOTRUE, S.L., priority 2019, published 2022)
